Key:
[1] = tested on: RENCA RCC cells co-cultured with RAW264.7 macrophages; assay: Transwell invasion analysis of RENCA RCC cells co-cultured with RAW264.7 macrophages; format: cell-based, mouse; conditions: compound treatment, FIGS. 11, 12, 16, 17
Protocol: RENCA mouse renal epithelial adenocarcinoma cells and RAW264.7 mouse macrophages were purchased from the Korean Cell Line Bank (Seoul, Korea). RENCA and RAW264.7 cells were maintained in Dulbecco's Modified Eagle Medium (DMEM) medium (Gibco, Thermo Fisher Scientific, Waltham, Mass., USA) supplemented with 10% FBS and 1% penicillin/streptomycin.
Cancer cell invasion analysis was performed in a 24-well transwell plate (Corning Costar, New York, N.Y., USA). A transwell having a pore size of 8 μm was coated with Type I collagen (3 μg/60 μL/well). A total of 4×10^4 bone marrow-derived macrophage (BMDM) cells were seeded in the lower chamber and differentiated into macrophages by using cancer CM. A total of 1×10^4 cancer cells were seeded into the upper transwell. After 24 or 48 hours, cancer cells that invaded into the lower chamber through the porous membrane were fixed with 3.7% formaldehyde and stained with 0.2% crystal violet. Images of the stained cells were obtained by using an optical microscope (CKX41, Olympus, Tokyo, Japan) and analyzed by using the ImageJ software program (NIH, Bethesda, Md., RRID:SCR_003070). To evaluate the effect of DUSP22 or MAPK14 knockdown, 1×10^5 RAW264.7 cells were seeded in the lower chamber and transfected with siRNA.

[2] = tested on: RCC cells co-transplanted with macrophages; assay: Zebrafish cancer xenograft model of RCC cell dissemination (early stage of metastasis); format: in vivo; conditions: macrophages treated with compound before co-transplantation with RCC cells into zebrafish embryos; vs DMSO-treated macrophages; FIGS. 14, 15
Protocol: Evaluation of in vivo mouse RCC cell dissemination (early stage of metastasis) was performed by using a validated zebrafish model.
Embryos of 48 hours post-fertilization were prepared for cell xenotransplantation and either 39 or 44 embryos were used for each treatment group. After the RCC cells were stained with 2 μg/mL DiI (Invitrogen), the villus of the embryos was removed, and then the embryos were anesthetized with 0.0016% tricaine. An injector (Picospritzer ? , Parker Hannifin, Cleveland, Ohio, USA) was used to inject 200 RCC cells into the center of egg yolk or a mixture of the RCC cells and DMSO-treated macrophages or of the RCC cells and DUSP inhibitor-treated macrophages (1:1 ratio) was injected to the center of egg yolk. The xenotransplanted embryos were transferred to a 96-well plate of 200 μL of E3 medium. The number of embryos, representing the dissemination of cancer cells from the injection site, was counted by using a fluorescence microscope (Leica DM2500 Microscope).

Structure (SMILES) | RCC invasion induced by the co-culture with macrophages [1] | dissemination (early stage of metastasis) in vivo [2]
O=C(O)c1ccc(/C=C2\SC(=S)N(c3cccc(C(F)(F)F)c3)C2=O)cc1 [CFTRinh-172] | inhibited | –
O=C(O)c1ccc(N2C(=O)/C(=C/c3ccccc3)SC2=S)cc1 [BML-260] | inhibited | significantly inhibited

From patent publication US20230242993A1, “METHOD FOR SCREENING MARKERS FOR PREDICTING PROGNOSIS OF RENAL CELL CARCINOMA USING TRANSCRIPTOMIC ANALYSIS” (Gwangju Institute of Science and Technology, priority 2021, published 2023)
